Reference: patent publication US20020045638A1, “Method of treating estrogen receptor positive carcinoma” (priority 2000, published 2002)

Experiments:
[1] = test system: BG-1 human ovarian cancer cells; test: Inhibition of growth of BG-1 ovarian cancer cells (MTT), with MacSynergy II synergy analysis; type: cell-based; conditions: for Antagonsim / Synergy: BG-1, antiestrogen in combination with CCI-779, MacSynergy II, Bliss independence model; for Percent Inhibition: CCI-779 0 nM
Description: In these test procedures, rapamycin 42-ester with 3-hydroxy-2-(hydroxymethyl)-2-methylpropionic acid was used as a representative rapamycin, and 2-(4-hydroxy-phenyl)-3-methyl-1-[4-(2-piperdin-1-yl-ethoxy)-benzyl-1 H-indol-5-ol, raloxifene, and 4-hydroxytamoxifen were used as representative antiestrogens.
One day before the experiment, cells were plated in 96-well plates at a cell density of 2,500 cells/well in IMEM medium supplemented with 10% fetal bovine serum. The next day, cells were treated with various concentrations of antiestrogen and rapamycin 42-ester with 3-hydroxy-2-(hydroxymethyl)-2-methylpropionic acid (referred to as CCI-779 in the tables below). Five or six-days later, cell growth was monitored.

[2] = test system: MCF-7 human breast cancer cells; test: Inhibition of growth of MCF-7 breast cancer cells (MTT), with MacSynergy II synergy analysis; conditions: for Antagonsim / Synergy: MCF-7, antiestrogen in combination with CCI-779, MacSynergy II, Bliss independence model; for synergy of growth inhibition (in words): MCF-7 cells, in combination with CCI-779;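 for all read-outs here: cells treated five or six days with single agents or combinations, growth read by MTT, synergy surface equals observed % inhibition minus Bliss additive prediction, values under 0% signal antagonism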
Description: MCF-7 human breast cancer cells were maintained at 37° C. in a humidified atmosphere of 5% CO2 and 95% air in IMEM medium supplemented with 10% fetal bovine serum. […] One day before the experiment, cells were plated in 96-well plates at a cell density of 2,500 cells/well in IMEM medium supplemented with 10% fetal bovine serum. The next day, cells were treated with various concentrations of antiestrogen and rapamycin 42-ester with 3-hydroxy-2-(hydroxymethyl)-2-methylpropionic acid (referred to as CCI-779 in the tables below). Five or six-days later, cell growth was monitored. MTT solution (20 ul) (0.5 mg/ml) was added to each well and cells were incubated for an additional 4 h. The solution was then removed and 150 ul of DMSO added. The intensity of dark blue color corresponding to number of cells was read at 540 nm with an automated plate reader.
Briefly, theoretical additive interactions were calculated from the dose-response curves of each individual drug based on Bliss independence model. The calculated additive surface was then subtracted from the experimental surface to obtain a synergy surface representing % inhibition above the calculated additive value-synergy index. […] Likewise, any peak below the 0% plane is indicative of antagonism.

O=C(c1ccc(OCCN2CCCCC2)cc1)c1c(-c2ccc(O)cc2)sc2cc(O)ccc12 [RAL, raloxifene, reference compound]
Antagonsim [1]: −1.8 μM^2%
Synergy [1]: 40.3 μM^2%
Percent Inhibition ([1]; Table I, Raloxifene 0.25 nM): 0.74%
Percent Inhibition ([1]; Table I, Raloxifene 0.5 nM): −3.32%
Percent Inhibition ([1]; Table I, Raloxifene 1 nM): 7.79%
Percent Inhibition ([1]; Table I, Raloxifene 2 nM): 9.85%
Percent Inhibition ([1]; Table I, Raloxifene 3 nM): 11.5%
Percent Inhibition ([1]; Table I, Raloxifene 4 nM): 14.49%
Percent Inhibition ([1]; Table I, Raloxifene 5 nM): 14.04%
Antagonsim [2]: 0.0 μM^2%
Synergy [2]: 113.0 μM^2%
synergy of growth inhibition (in words) [2]: synergistic inhibition
Percent Inhibition ([2]; Table C, CCI-779 0 nM, Raloxifene 0.25 nM): −1.4%
Percent Inhibition ([2]; Table C, CCI-779 0 nM, Raloxifene 0.5 nM): −5.17%
Percent Inhibition ([2]; Table C, CCI-779 0 nM, Raloxifene 1 nM): 17.3%
Percent Inhibition ([2]; Table C, CCI-779 0 nM, Raloxifene 2 nM): 36.78%
Percent Inhibition ([2]; Table C, CCI-779 0 nM, Raloxifene 3 nM): 42.4%
Percent Inhibition ([2]; Table C, CCI-779 0 nM, Raloxifene 4 nM): 50.49%
Percent Inhibition ([2]; Table C, CCI-779 0 nM, Raloxifene 5 nM): 50.5%

CCC(=C(c1ccc(O)cc1)c1ccc(OCCN(C)C)cc1)c1ccccc1 [TAM, 4-hydroxytamoxifen, reference compound]
Antagonsim [1]: 0.0 μM^2%
Synergy [1]: 0.3 μM^2%
Percent Inhibition ([1]; Table H, 4-Hydroxytamoxifen 5 nM): 23.99%
Percent Inhibition ([1]; Table H, 4-Hydroxytamoxifen 10 nM): 21.39%
Percent Inhibition ([1]; Table H, 4-Hydroxytamoxifen 20 nM): 35.05%
Percent Inhibition ([1]; Table H, 4-Hydroxytamoxifen 30 nM): 36.43%
Percent Inhibition ([1]; Table H, 4-Hydroxytamoxifen 40 nM): 39.51%
Percent Inhibition ([1]; Table H, 4-Hydroxytamoxifen 50 nM): 47.73%
Percent Inhibition ([1]; Table H, 4-Hydroxytamoxifen 100 nM): 50%
Antagonsim [2]: 0.0 μM^2%
Synergy [2]: 77.00 μM^2%
synergy of growth inhibition (in words) [2]: synergistic inhibition
Percent Inhibition ([2]; Table B, CCI-779 0 nM, 4-Hydroxytamoxifen 5 nM): 20.44%
Percent Inhibition ([2]; Table B, CCI-779 0 nM, 4-Hydroxytamoxifen 10 nM): 22.75%
Percent Inhibition ([2]; Table B, CCI-779 0 nM, 4-Hydroxytamoxifen 20 nM): 39.85%
Percent Inhibition ([2]; Table B, CCI-779 0 nM, 4-Hydroxytamoxifen 30 nM): 41.46%
Percent Inhibition ([2]; Table B, CCI-779 0 nM, 4-Hydroxytamoxifen 40 nM): 39.09%
Percent Inhibition ([2]; Table B, CCI-779 0 nM, 4-Hydroxytamoxifen 50 nM): 47.19%
Percent Inhibition ([2]; Table B, CCI-779 0 nM, 4-Hydroxytamoxifen 100 nM): 36.99%
Percent Inhibition ([2]; Table F, 4-Hydroxytamoxifen 0 nM + 4-Hydroxytamoxifen 5 nM): 25.02%
Percent Inhibition ([2]; Table F, 4-Hydroxytamoxifen 0 nM + 4-Hydroxytamoxifen 10 nM): 37.37%
Percent Inhibition ([2]; Table F, 4-Hydroxytamoxifen 0 nM + 4-Hydroxytamoxifen 20 nM): 44.9%
Percent Inhibition ([2]; Table F, 4-Hydroxytamoxifen 0 nM + 4-Hydroxytamoxifen 30 nM): 42.42%
Percent Inhibition ([2]; Table F, 4-Hydroxytamoxifen 0 nM + 4-Hydroxytamoxifen 40 nM): 46.46%
Percent Inhibition ([2]; Table F, 4-Hydroxytamoxifen 0 nM + 4-Hydroxytamoxifen 50 nM): 45.78%
Percent Inhibition ([2]; Table F, 4-Hydroxytamoxifen 0 nM + 4-Hydroxytamoxifen 100 nM): 49.99%
Percent Inhibition ([2]; Table F, 4-Hydroxytamoxifen 5 nM + 4-Hydroxytamoxifen 0 nM): 12.73%
Percent Inhibition ([2]; Table F, 4-Hydroxytamoxifen 5 nM + 4-Hydroxytamoxifen 5 nM): 37.12%
Percent Inhibition ([2]; Table F, 4-Hydroxytamoxifen 5 nM + 4-Hydroxytamoxifen 10 nM): 49.04%
Percent Inhibition ([2]; Table F, 4-Hydroxytamoxifen 5 nM + 4-Hydroxytamoxifen 20 nM): 50.12%
Percent Inhibition ([2]; Table F, 4-Hydroxytamoxifen 5 nM + 4-Hydroxytamoxifen 30 nM): 50.39%
Percent Inhibition ([2]; Table F, 4-Hydroxytamoxifen 5 nM + 4-Hydroxytamoxifen 40 nM): 54.19%
Percent Inhibition ([2]; Table F, 4-Hydroxytamoxifen 5 nM + 4-Hydroxytamoxifen 50 nM): 53.75%
Percent Inhibition ([2]; Table F, 4-Hydroxytamoxifen 5 nM + 4-Hydroxytamoxifen 100 nM): 59.23%
Percent Inhibition ([2]; Table F, 4-Hydroxytamoxifen 10 nM + 4-Hydroxytamoxifen 0 nM): 27.87%
Percent Inhibition ([2]; Table F, 4-Hydroxytamoxifen 10 nM + 4-Hydroxytamoxifen 5 nM): 47.71%
Percent Inhibition ([2]; Table F, 4-Hydroxytamoxifen 10 nM + 4-Hydroxytamoxifen 10 nM): 47.11%
Percent Inhibition ([2]; Table F, 4-Hydroxytamoxifen 10 nM + 4-Hydroxytamoxifen 20 nM): 45.86%
Percent Inhibition ([2]; Table F, 4-Hydroxytamoxifen 10 nM + 4-Hydroxytamoxifen 30 nM): 47.6%
Percent Inhibition ([2]; Table F, 4-Hydroxytamoxifen 10 nM + 4-Hydroxytamoxifen 40 nM): 53.22%
Percent Inhibition ([2]; Table F, 4-Hydroxytamoxifen 10 nM + 4-Hydroxytamoxifen 50 nM): 56.54%
Percent Inhibition ([2]; Table F, 4-Hydroxytamoxifen 10 nM + 4-Hydroxytamoxifen 100 nM): 58.11%
Percent Inhibition ([2]; Table F, 4-Hydroxytamoxifen 50 nM + 4-Hydroxytamoxifen 0 nM): 39.46%
Percent Inhibition ([2]; Table F, 4-Hydroxytamoxifen 50 nM + 4-Hydroxytamoxifen 5 nM): 48.51%
Percent Inhibition ([2]; Table F, 4-Hydroxytamoxifen 50 nM + 4-Hydroxytamoxifen 10 nM): 51.71%
Percent Inhibition ([2]; Table F, 4-Hydroxytamoxifen 50 nM + 4-Hydroxytamoxifen 20 nM): 46.36%
Percent Inhibition ([2]; Table F, 4-Hydroxytamoxifen 50 nM + 4-Hydroxytamoxifen 30 nM): 42.54%
Percent Inhibition ([2]; Table F, 4-Hydroxytamoxifen 50 nM + 4-Hydroxytamoxifen 40 nM): 48.3%
Percent Inhibition ([2]; Table F, 4-Hydroxytamoxifen 50 nM + 4-Hydroxytamoxifen 50 nM): 50.98%
Percent Inhibition ([2]; Table F, 4-Hydroxytamoxifen 50 nM + 4-Hydroxytamoxifen 100 nM): 58.57%
Percent Inhibition ([2]; Table F, 4-Hydroxytamoxifen 100 nM + 4-Hydroxytamoxifen 0 nM): 46.41%
Percent Inhibition ([2]; Table F, 4-Hydroxytamoxifen 100 nM + 4-Hydroxytamoxifen 5 nM): 52.37%
Percent Inhibition ([2]; Table F, 4-Hydroxytamoxifen 100 nM + 4-Hydroxytamoxifen 10 nM): 50.34%
Percent Inhibition ([2]; Table F, 4-Hydroxytamoxifen 100 nM + 4-Hydroxytamoxifen 20 nM): 47.64%
Percent Inhibition ([2]; Table F, 4-Hydroxytamoxifen 100 nM + 4-Hydroxytamoxifen 30 nM): 48.22%
Percent Inhibition ([2]; Table F, 4-Hydroxytamoxifen 100 nM + 4-Hydroxytamoxifen 40 nM): 51.79%
Percent Inhibition ([2]; Table F, 4-Hydroxytamoxifen 100 nM + 4-Hydroxytamoxifen 50 nM): 55.29%
Percent Inhibition ([2]; Table F, 4-Hydroxytamoxifen 100 nM + 4-Hydroxytamoxifen 100 nM): 61.34%
Percent Inhibition ([2]; Table F, 4-Hydroxytamoxifen 200 nM + 4-Hydroxytamoxifen 0 nM): 45.75%
Percent Inhibition ([2]; Table F, 4-Hydroxytamoxifen 200 nM + 4-Hydroxytamoxifen 5 nM): 54.54%
Percent Inhibition ([2]; Table F, 4-Hydroxytamoxifen 200 nM + 4-Hydroxytamoxifen 10 nM): 51.06%
Percent Inhibition ([2]; Table F, 4-Hydroxytamoxifen 200 nM + 4-Hydroxytamoxifen 20 nM): 52%
Percent Inhibition ([2]; Table F, 4-Hydroxytamoxifen 200 nM + 4-Hydroxytamoxifen 30 nM): 49.75%
Percent Inhibition ([2]; Table F, 4-Hydroxytamoxifen 200 nM + 4-Hydroxytamoxifen 40 nM): 59.13%
Percent Inhibition ([2]; Table F, 4-Hydroxytamoxifen 200 nM + 4-Hydroxytamoxifen 50 nM): 59.05%
Percent Inhibition ([2]; Table F, 4-Hydroxytamoxifen 200 nM + 4-Hydroxytamoxifen 100 nM): 61.13%
Percent Inhibition ([2]; Table F, 4-Hydroxytamoxifen 400 nM + 4-Hydroxytamoxifen 0 nM): 48.85%
Percent Inhibition ([2]; Table F, 4-Hydroxytamoxifen 400 nM + 4-Hydroxytamoxifen 5 nM): 52.28%
Percent Inhibition ([2]; Table F, 4-Hydroxytamoxifen 400 nM + 4-Hydroxytamoxifen 10 nM): 58.29%
Percent Inhibition ([2]; Table F, 4-Hydroxytamoxifen 400 nM + 4-Hydroxytamoxifen 20 nM): 56.61%
Percent Inhibition ([2]; Table F, 4-Hydroxytamoxifen 400 nM + 4-Hydroxytamoxifen 30 nM): 57.28%
Percent Inhibition ([2]; Table F, 4-Hydroxytamoxifen 400 nM + 4-Hydroxytamoxifen 40 nM): 59.68%
Percent Inhibition ([2]; Table F, 4-Hydroxytamoxifen 400 nM + 4-Hydroxytamoxifen 50 nM): 67.28%
Percent Inhibition ([2]; Table F, 4-Hydroxytamoxifen 400 nM + 4-Hydroxytamoxifen 100 nM): 64.92%
